# Laboratory results as given in the supplement of paper PMC10307832.
# Experiments:
# Test in all cases: relative viability (nuclei count vs DMSO), 5 days (fraction); higher = more cells survive
# Bexarotene + Bortezomib = compound: C=C(c1ccc(C(=O)O)cc1)c1cc2c(cc1C)C(C)(C)CCC2(C)C [Bexarotene] + CC(C)C[C@H](NC(=O)[C@H](Cc1ccccc1)NC(=O)c1cnccn1)B(O)O [Bortezomib] (partner 0.002 µM)
# Procedure, shortened: (§1)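 A single step with final 0.05% Triton X-100, 1% formaldehyde and 1 ug/ml Hoechst fixed the cells and stained nuclei 5 days after treatment. Lung cancer cell lines in 1536-well plates had been treated by pin tool the day after seeding with one drug alone or a fixed anchor-drug dose plus five library-drug doses (not always all listed) in √10 steps, and nuclei were counted on 4× images. Relative viability is the ratio of nuclei in treated wells to nuclei in vehicle wells, taken as the median of duplicate plates.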
# Bexarotene + Tozasertib = compound: C=C(c1ccc(C(=O)O)cc1)c1cc2c(cc1C)C(C)(C)CCC2(C)C [Bexarotene] + Cc1cc(Nc2cc(N3CCN(C)CC3)nc(Sc3ccc(NC(=O)C4CC4)cc3)n2)n[nH]1 [Tozasertib] (partner 0.1 µM)
# Procedure, shortened: as §1
# Bexarotene + AZD7762 = compound: C=C(c1ccc(C(=O)O)cc1)c1cc2c(cc1C)C(C)(C)CCC2(C)C [Bexarotene] + NC(=O)Nc1cc(-c2cccc(F)c2)sc1C(=O)N[C@H]1CCCNC1 [AZD7762] (partner 0.2 µM)
# Procedure, shortened: as §1
# Bexarotene + Decitabine = compound: C=C(c1ccc(C(=O)O)cc1)c1cc2c(cc1C)C(C)(C)CCC2(C)C [Bexarotene] + Nc1ncn([C@H]2C[C@H](O)[C@@H](CO)O2)c(=O)n1 [Decitabine] (partner 2 µM)
# Procedure, shortened: as §1
Cell Line,relative viability (Bexarotene + Bortezomib; first compound 0.08 µM),relative viability (Bexarotene + Bortezomib; first compound 0.253 µM),relative viability (Bexarotene + Bortezomib; first compound 0.8 µM),relative viability (Bexarotene + Bortezomib; first compound 2.53 µM),relative viability (Bexarotene + Bortezomib; first compound 8 µM),relative viability (Bexarotene + Tozasertib; first compound 0.08 µM),relative viability (Bexarotene + Tozasertib; first compound 0.253 µM),relative viability (Bexarotene + Tozasertib; first compound 0.8 µM),relative viability (Bexarotene + Tozasertib; first compound 2.53 µM),relative viability (Bexarotene + Tozasertib; first compound 8 µM),relative viability (Bexarotene + AZD7762; first compound 0.08 µM),relative viability (Bexarotene + AZD7762; first compound 0.253 µM),relative viability (Bexarotene + AZD7762; first compound 0.8 µM),relative viability (Bexarotene + AZD7762; first compound 2.53 µM),relative viability (Bexarotene + AZD7762; first compound 8 µM),relative viability (Bexarotene + Decitabine; first compound 0.08 µM),relative viability (Bexarotene + Decitabine; first compound 0.253 µM),relative viability (Bexarotene + Decitabine; first compound 0.8 µM),relative viability (Bexarotene + Decitabine; first compound 2.53 µM),relative viability (Bexarotene + Decitabine; first compound 8 µM)
HOP-62,0.611,1.05,0.916,0.645,0.81,0.352,0.366,0.408,0.391,0.363,0.626,1.04,0.718,0.412,0.669,0.222,0.183,0.183,0.164,0.208
LU99A,1.36,1.26,1.12,1.23,1.21,0.291,0.252,0.296,0.234,0.284,0.356,0.444,0.391,0.404,0.36,1.18,1,0.935,0.909,0.889
NCI-H647,0.943,1.05,0.89,1.1,1.02,0.351,0.432,0.257,0.279,0.324,0.429,0.463,0.459,0.272,0.33,0.439,0.394,0.412,0.419,0.335
A-427,0.933,0.923,0.79,0.897,0.932,0.203,0.202,0.193,0.202,0.183,0.79,0.71,0.736,0.691,0.688,0.57,0.461,0.435,0.477,0.533
NCI-H441,0.472,0.633,0.592,,0.619,0.709,0.758,0.631,0.676,0.656,1.5,1.28,1.24,1.1,1.01,0.3,0.283,0.236,0.229,0.279
NCI-H2126,1.13,1.17,1.08,1.12,1.11,0.881,0.869,0.793,0.818,0.829,1.07,0.971,0.916,0.994,1.02,0.631,0.696,0.575,0.571,0.554
HCC-44,0.997,1,0.851,0.823,0.822,1.34,1.07,0.925,0.842,0.82,0.978,1.12,0.927,0.967,0.964,1.07,0.96,0.907,1.01,0.897
NCI-H460,1.16,1.09,0.961,1.14,1.04,0.541,0.452,0.481,0.399,0.427,0.694,0.701,0.701,0.668,0.735,0.581,0.505,0.448,0.499,0.381
NCI-H322M,1.3,1.4,1.26,1.17,1.32,0.508,0.505,0.488,0.475,0.445,0.518,0.645,0.585,0.548,0.568,0.68,0.748,0.655,0.678,0.731
EKVX,0.999,1.28,1.07,1.1,1.09,0.361,0.42,0.389,0.46,0.325,0.804,0.848,0.822,0.828,0.634,0.299,0.338,0.309,0.172,0.332
NCI-H1734,0.896,0.98,0.936,0.87,0.818,0.281,0.244,0.26,0.285,0.257,0.552,0.536,0.522,0.488,0.526,0.522,0.461,0.498,0.483,0.441
ABC-1,0.3,0.311,0.269,0.291,0.336,0.19,0.175,0.21,0.197,0.196,0.729,0.797,0.747,0.667,0.876,1.21,0.927,1.12,,1.09
EPLC-272H,0.968,0.875,0.538,0.776,0.822,0.278,0.262,0.307,0.286,0.341,0.199,0.259,0.517,0.208,0.271,0.414,0.36,0.353,0.368,0.414
NCI-H1993,1.01,0.991,0.984,0.978,1.1,0.544,0.576,0.604,0.527,0.613,0.805,0.83,0.618,0.851,0.636,0.537,0.484,0.554,0.576,0.608
NCI-H596,1.01,0.986,0.836,0.795,0.85,0.998,0.897,0.788,0.934,0.837,1.19,1.01,1.01,0.976,1.02,1.11,0.966,0.974,1.09,1.02
